Assays:
C57BL/6J or Balb/c mice [1] = experiment: In vivo mobilization, CBC analysis of WBC (Example 11); settings: for fold increase in WBCs compared to the vehicle: PB 2 h after GPC-100 30 mg/kg IV, 1 h after AMD3100 5 mg/kg SC, 12 h after G-CSF 0.1 mg/kg SC BID x5, propranolol 20 mg/kg IP QD x7
C57BL/6J or Balb/c mice [2] = settings: 5 mg/kg SC, literature; cited from earlier work
[3] = molecular target: CXCR4 and B2AR heteromers (Homo sapiens, UniProt P61073); settings: MDA-MB-231 cells
C57/B16 mice = experiment: Complete blood count, beta blockers +/- GPC100, single agents and combinations (Examples 6-7); settings: for effect of 7-day beta blocker on GPC100-induced mobilization: GPC100 30 mg/kg IV on day 7
[4] = test system: LSK cells (Lineage−Sca−1+c−Kit+); experiment: Flow cytometry of LSK cells in peripheral blood; settings: mouse, in vivo
C57/BL6 mice = experiment: Complete blood count in peripheral blood, Example 1 mobilization studies; settings: 7-day treatment alone, 20 mg/kg IP

Chain of CXCR4 and B2AR heteromers (P61073 whole entry, one chain of several): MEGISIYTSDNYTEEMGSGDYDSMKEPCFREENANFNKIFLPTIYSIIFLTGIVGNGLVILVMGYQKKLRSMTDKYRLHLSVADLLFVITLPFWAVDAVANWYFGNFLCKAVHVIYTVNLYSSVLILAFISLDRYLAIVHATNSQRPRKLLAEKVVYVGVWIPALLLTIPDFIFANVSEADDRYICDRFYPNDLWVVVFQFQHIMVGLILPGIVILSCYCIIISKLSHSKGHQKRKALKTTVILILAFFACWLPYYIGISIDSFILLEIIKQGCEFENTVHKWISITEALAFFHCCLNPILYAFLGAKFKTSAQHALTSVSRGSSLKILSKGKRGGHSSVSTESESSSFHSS

Molecule: c1cc(CN2CCCNCCNCCCNCC2)ccc1CN1CCCNCCNCCCNCC1 [AMD3100, Plerixafor]
- changes in platelet count, hemoglobin or other red blood cell parameters (C57BL/6J or Balb/c mice [1]; single administration): No changes
- time of peak mobilization (C57BL/6J or Balb/c mice [2]): 1 h
- Inhibition of Ca2+ flux enhanced by co-treatment with Pro (in words) [3]: not

Molecule: Cc1ccc(OCC(O)C(C)NC(C)C)c2c1CCC2 (centres unmarked) [ICI-118,551]
- effect on total blood cell counts when administered alone (C57/B16 mice; seven-day IP, propranolol 20 mg/kg, nadolol 5 mg/kg, ICI-118,551 5 mg/kg): did not affect

Molecule: CC(C)(C)NCC(O)COc1cccc2c1CC(O)C(O)C2 (centres unmarked) [Nadolol]
- effect of 7-day beta blocker on GPC100-induced mobilization (C57/B16 mice): enhanced

Molecule: CC(C)NCC(O)COc1cccc2ccccc12 (centres unmarked) [Propranolol]
- effect of 7-day beta blocker on GPC100-induced mobilization (C57/B16 mice): enhanced
- effect on AMD3100-induced mobilization of lymphocytes (C57/B16 mice; propranolol 20 mg/kg IP D1-D7, AMD3100 5 mg/kg SC D7): slightly increase
- effect of propranolol pretreatment on GPC-100 induced mobilization (C57BL/6J or Balb/c mice [1]; 20 mg/kg IP over 7 days): significantly improved
- fold increase in WBCs compared to the vehicle (C57BL/6J or Balb/c mice [1]): 4.1 fold
- effect of propranolol on LSK cell mobilization by GPC-100 [4]: enhanced
- Hemoglobin (C57/BL6 mice): 13.15 ± 0.8 g/dL
- Lymphocytes (C57/BL6 mice): 4.7 ± 1.3 10^3/uL
- Monocytes (C57/BL6 mice): 0.2 ± 0.09 10^3/uL
- Neutrophils (C57/BL6 mice): 0.42 ± 0.3 10^3/uL
- Platelets (C57/BL6 mice): 266 ± 52 10^3/uL
- RBC (C57/BL6 mice): 9.8 ± 0.36 10^6/uL
- WBC (C57/BL6 mice; vehicle IV on day 7): 5.4 ± 1.7 10^3/uL

B1: G-CSF: Recombinant murine G-CSF, granulocyte-colony stimulating factor (protein, UniProt P09920 31-208, looked up)
Granulocyte …: VPLVTVSALPPSLPLPRSFLLKSLEQVRKIQASGSVLLEQLCATYKLCHPEELVLLGHSLGIPKASLSGCSSQALQQTQCLSQLHSGLCLYQGLLQALSGISPALAPTLDLLQLDVANFATTIWQQMENLGVAPTVQPTQSAMPAFTSAFQRRAGGVLAISYLQGFLETARLALHHLA
- WBC mobilization, single agent comparison (C57/B16 mice; single agent): Maximum mobilization
- neutrophil mobilization, single agent comparison (C57/B16 mice; single agent): more neutrophils than GPC100 or AMD3100
- fold increase in WBCs compared to the vehicle (C57BL/6J or Balb/c mice [1]): 4.5 fold

— US20250360149A1, “GPCR INHIBITORS AND USES THEREOF” (GPCR Therapeutics, Inc., priority 2022, published 2025)
